Key:
[1] = system: Plasmodium falciparum; experiment: NOVARTIS: Inhibition of Plasmodium falciparum 3D7 (drug-susceptible) proliferation in erythrocyte-based infection assay; type: functional, organism-based; conditions: Plasmodium falciparum, 3D7
[2] = system: Plasmodium falciparum; experiment: NOVARTIS: Inhibition of Plasmodium falciparum W2 (drug-resistant) proliferation in erythrocyte-based infection assay; type: functional, organism-based; conditions: Plasmodium falciparum, W2; read-out: EC50
[3] = NOVARTIS: Cytotoxicity against human hepatocellular carcinoma cell line (Huh7); type: toxicity, cell-based, Huh-7; conditions: Huh7 cells (hepatocellular carcinoma cell line)

| SMILES | EC50 [1] [nM] | EC50 [2] [nM] | CC50 [3] [nM] |
| --- | --- | --- | --- |
| Fc1ccc(-c2c[n+](Cc3ccc(Cl)cc3)c3n2CCC3)cc1 | 1140 | 370 | > 100000 |
| CN(C)c1ccc(N=Cc2ccc(N3CCOCC3)cc2)cc1 | 175 | 235 | > 10000 |
| CC(=O)Nc1cccc(NC(=O)C(F)(F)F)c1 | 1180 | > 1250 | > 10000 |
| CCN1CCC(N2CCC(n3c(Cc4ccccc4OC)nc4cc(F)ccc43)CC2)CC1 | 413 | 350 | 37700 |
| COc1ccc(OC)c(-c2ccc(O)c(CNC3CCCCCC3)c2)c1 | 364 | 97.5 | > 10000 |
| Cc1cc(C)cc(NC(=S)NNc2ccnc3cc(Cl)ccc23)c1 | 1240 | 2170 | 67700 |
| Cc1ccn(C(=O)NCCNC(=O)Nc2ccc(Cc3ccc(NC(=O)NCCNC(=O)n4ccc(C)n4)cc3)cc2)n1 | > 953 | > 1250 | > 10000 |
| COc1ccc(OC(C)=O)c(C=NNC(=O)C(C)Oc2ccccc2Br)c1 (centres undefined) | 5100 | 2800 | > 100000 |
| CCCCCCc1cc(O)c2c(c1)OC(C)(C)C1=C2CCN(C)C1 | 48.4 | 31.3 | 20600 |
| Cc1cc(N2CCC(N(C)C3CCCC3)CC2)nc2cc(O)ccc12 | 312 | 1290 | 25500 |
| Oc1ccccc1C=NNc1nnc2c3ccccc3n(Cc3ccccc3)c2n1 | > 832 | > 1720 | > 10000 |
| CCC(c1nc2ccccc2c(=O)n1-c1cccc(Cl)c1)N(CCC(C)C)C(=O)COCc1ccccc1 (centres undefined) | 1190 | > 1140 | 3910 |
| O=C(Nc1ccccc1)C1Cc2ccccc2CN1S(=O)(=O)c1ccc(F)cc1 (centres undefined) | > 12500 | 6310 | > 100000 |
| CCOC(=O)C1=C(N)OC2=C(C(=O)CC(c3ccccc3)C2)C1c1ccc(Cl)cc1Cl (centres undefined) | > 1250 | > 600 | > 10000 |
| CCCSc1nc(N)c(NC(=O)c2ccco2)c(=O)[nH]1 | > 361 | > 1020 | > 10000 |
| Cc1ccc2ccc3ccc(C)nc3c2n1 [NEOCUPROINE] | 97.1 | 24.3 | > 100000 |
| CCn1c(SCc2ccc(Cl)cc2Cl)nc2sc3c(c2c1=O)CCN(C)C3 | 942 | 900 | > 100000 |
| N=c1n(CCN2CCCC2)c2ccccc2n1CC(O)c1ccc(Cl)c(Cl)c1 (centres undefined) | 83 | 257 | 10900 |
| CC(C)NC(=O)c1ccc(OC2CCN(CC3CCCCC3)CC2)c(Cl)c1 | 476 | 298 | 65900 |
| CC(=NNC(=S)N(C)C)c1ccccn1 | 311 | 338 | > 10000 |
| COc1ccc(N2C(=O)/C(=C3/C(=O)Nc4ccc(F)cc43)SC2=S)c(OC)c1 | > 926 | 947 | > 10000 |
| COc1ccccc1C(=O)Oc1ccccc1-c1nc2ccccn2c1NC(C)(C)CC(C)(C)C | 1580 | 40.8 | > 10000 |
| COc1cccc(-c2ccc(O)c(CN3CCCC(C)C3)c2)n1 (centres undefined) | 543 | 67.9 | > 10000 |
| CCOC(=O)C1=C(C)NC2=C(C(=O)CC(c3ccc(OC)c(OC)c3)C2)C1c1ccccc1C (centres undefined) | 134 | 27.4 | > 100000 |
| CCCN(Cc1cc(OC)c2c(c1)OCO2)CC1CC1 | > 1720 | 566 | > 10000 |
| COc1cc(/C=C(\C#N)c2nc3ccccc3[nH]2)ccc1OCc1ccccc1Cl | > 1250 | 1670 | > 10000 |
| CO[C@H]1O[C@@H]2COC(c3ccccc3)O[C@H]2[C@@H](O)[C@@H]1OCc1ccccc1 (some centres undefined) | 376 | 555 | > 13800 |
| C[n+]1cccc(C=C2c3ccccc3-c3ncccc32)c1 | 173 | 678 | > 100000 |

Reference: ChEMBL document CHEMBL1156829 (Proc Natl Acad Sci U S A, 2008)
